We go through five substances from patent US9833497B2, “Human originated EGF domain proteins and use of the same” (CHENGDU SOURCEBIO LIMITED-LIABILITY COMPANY, priority 2013, dated 2017).

Holding throughout (assay type): cell-based
Assay [1] deals with Pseudomonas aeruginosa. As to the kind of experiment: MIC against Gram-negative bacteria: Pseudomonas aeruginosa. Conditions: for MIC against P. aeruginosa / MIC (μg/mL) P. aeruginosa: Pseudomonas aeruginosa, 5×10^5 CFU/mL. An outline of the steps:
(§1)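 Bacteria grown in LB at 37° C with shaking to McFarland 0.5, pelleted and resuspended in fresh LB, then seeded at 5×10^5 CFU/mL per well. Purified recombinant human EGF domain proteins were two-fold serially diluted in triplicate and plates shaken at 37° C, 175 rpm. MIC is the lowest protein concentration with no bacterial growth.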

Assay [2] has as its system E. coli DH5α. As to the kind of experiment: Antibacterial activity: MIC and growth curve against E. coli DH5α in 96-well plate. Conditions: minimal inhibitory concentration against E. coli DH5α; 96-well plate, 5×10^5 CFU/mL, 37° C., judged after 8 h. Put shortly: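 Log-phase bacteria (OD600 ~0.5) resuspended in LB at 5×10^5 CFU/mL, exposed to recombinant protein at 50, 25, 12.5 μg/mL final in triplicate, 37 °C shaking at 175 rpm. OD600 read every 30 min; MIC is lowest concentration showing no growth.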

Assay [3] has as its system Citrobacter diversus. As to the kind of experiment: MIC against Gram-negative bacteria: Citrobacter diversus. Conditions: for MIC against C. diversus / MIC (μg/mL) C. diversus: Citrobacter diversus, 5×10^5 CFU/mL. An outline of the steps:
as §1

In assay [4] the test system is Serratia marcescens. In words: MIC against Gram-negative bacteria: Serratia marcescens. Conditions: for MIC against S. marcescens / MIC (μg/mL) S. marcescens: Serratia marcescens, 5×10^5 CFU/mL. Put shortly:
as §1

The test system of assay [5] is E. coli BL21. In words: MIC against Gram-negative bacteria: E. coli BL21. The note with it: E. coli BL21; for MIC against E. coli BL21 / MIC (μg/mL) E. coli BL21: 5×10^5 CFU/mL. An outline of the steps:
as §1

In assay [6] the test system is Proteus mirabilis. In words: MIC against Gram-negative bacteria: Proteus mirabilis. Conditions: for MIC against P. mirabilis / MIC (μg/mL) P. mirabilis: Proteus mirabilis, 5×10^5 CFU/mL. An outline of the steps:
as §1

The subject of assay [7] is Klebsiella pneumonia. As to the kind of experiment: MIC against Gram-negative bacteria: Klebsiella pneumonia. The note with it: for MIC against K. pneumonia / MIC (μg/mL) K. pneumonia: Klebsiella pneumonia, 5×10^5 CFU/mL. Put shortly: as §1
Assay [8] relates to Moraxella catarrhalis. In words: MIC against Gram-negative bacteria: Moraxella catarrhalis. The note with it: for MIC against M. catarrhalis / MIC (μg/mL) M. catarrhalis: Moraxella catarrhalis, 5×10^5 CFU/mL. Put shortly: as §1
The subject of assay [9] is Proteus vulgaris. In words: MIC against Gram-negative bacteria: Proteus vulgaris. The note with it: for MIC against P. vulgaris / MIC (μg/mL) P. vulgaris: Proteus vulgaris, 5×10^5 CFU/mL. An outline of the steps:
as §1

The test system of assay [10] is Enterobacter cloacae. As to the kind of experiment: MIC against Gram-negative bacteria: Enterobacter cloacae. Conditions: for MIC against E. cloacae / MIC (μg/mL) E. cloacae: Enterobacter cloacae, 5×10^5 CFU/mL. An outline of the steps:
as §1

Assay [11] relates to Aeromonas hydrophila. In words: MIC against Gram-negative bacteria: Aeromonas hydrophila. Conditions: for MIC against A. hydrophila / MIC (μg/mL) A. hydrophila: Aeromonas hydrophila, 5×10^5 CFU/mL. An outline of the steps: as §1

As for “PRT1375 (SIRTCPSNCHGRGRCEEGRCLCDPGYTGPTC; listed as Homo sapiens)”, in assay [1] (10 h cultivation at 37° C.), the “MIC against P. aeruginosa” value is 12.5 µg/mL. In assay [2], the MIC (in general, the lowest concentration that inhibits growth of the organism) stood at 12.5 µg/mL. In assay [3] (10 h cultivation at 37° C.), the “MIC against C. diversus” value came to 12.5 µg/mL. For the same substance, the “MIC against S. marcescens” value in assay [4] (10 h cultivation at 37° C.) was determined as 12.5 µg/mL. The “MIC against E. coli BL21” value in [5] (10 h cultivation at 37° C.) worked out at 12.5 µg/mL. For the same substance, the “MIC against P. mirabilis” value in assay [6] (10 h cultivation at 37° C.) worked out at 50 µg/mL. Moreover, the “MIC against K. pneumonia” value in assay [7] (10 h cultivation at 37° C.) was determined as 12.5 µg/mL. In assay [8] (10 h cultivation at 37° C.), the “MIC against M. catarrhalis” value was determined as 25 µg/mL. Further, in [9] (10 h cultivation at 37° C.), the “MIC against P. vulgaris” value came out at 25 µg/mL. Further, the “MIC against E. cloacae” value in assay [10] (10 h cultivation at 37° C.) stood at 12.5 µg/mL. For the same substance, in assay [11] (10 h cultivation at 37° C.), the “MIC against A. hydrophila” value was 25 µg/mL.
Regarding “PRT956 (NIDDCAFASCTPGSTCIDRVASFSCMCPEGKAGLLCH; listed as Homo sapiens)”, the MIC in assay [1] (P. aeruginosa, 10 h cultivation at 37° C.) was determined as 12.5 µg/mL; in [2], 12.5 µg/mL; in [3] (C. diversus, 10 h cultivation at 37° C.) it was 25 µg/mL; in assay [4] (S. marcescens, 10 h cultivation at 37° C.), 25 µg/mL; in assay [5] (10 h cultivation at 37° C.) it was 12.5 µg/mL; in assay [6] (P. mirabilis, 10 h cultivation at 37° C.), 25 µg/mL. Moreover, the MIC in assay [7] (K. pneumonia, 10 h cultivation at 37° C.) turned out to be 25 µg/mL; in [8] (M. catarrhalis, 10 h cultivation at 37° C.), 12.5 µg/mL; in assay [9] (P. vulgaris, 10 h cultivation at 37° C.) it was 50 µg/mL; in [10] (E. cloacae, 10 h cultivation at 37° C.), 12.5 µg/mL; in assay [11] (A. hydrophila, 10 h cultivation at 37° C.) it was 25 µg/mL.
Turning to “PRT68 (RSGRCANGVCKNGGTCVNLLIGGFHCVCPPGEYERPYCE; listed as Homo sapiens)”, in [1] (96-well plate, 37° C., 10 h), the “MIC (μg/mL) P. aeruginosa” value is 12.5 µg/mL. The same substance gave an MIC in assay [2] of 12.5 µg/mL. For the same substance, the “MIC (μg/mL) C. diversus” value in assay [3] (96-well plate, 37° C., 10 h) worked out at 12.5 µg/mL. For the same substance, the “MIC (μg/mL) S. marcescens” value in [4] (96-well plate, 37° C., 10 h) amounted to 100 µg/mL. Further, the “MIC (μg/mL) E. coli BL21” value in [5] (96-well plate, 37° C., 10 h) amounted to 25 µg/mL. Further, the “MIC (μg/mL) P. mirabilis” value in assay [6] (96-well plate, 37° C., 10 h) is 12.5 µg/mL. Also, the “MIC (μg/mL) K. pneumonia” value in assay [7] (96-well plate, 37° C., 10 h) is 25 µg/mL. In addition, in [8] (96-well plate, 37° C., 10 h), the “MIC (μg/mL) M. catarrhalis” value came to 12.5 µg/mL. Also, in assay [9] (96-well plate, 37° C., 10 h), the “MIC (μg/mL) P. vulgaris” value worked out at 12.5 µg/mL. For the same substance, the “MIC (μg/mL) E. cloacae” value in [10] (96-well plate, 37° C., 10 h) is 12.5 µg/mL. For the same substance, the “MIC (μg/mL) A. hydrophila” value in assay [11] (96-well plate, 37° C., 10 h) worked out at 12.5 µg/mL.
As to “PRT94 (DVNECNAHPCFPRVRCINTSPGFRCEACPPGYSGPTHQGVGLAFAKANKQVCT; listed as Homo sapiens)”, the “MIC (μg/mL) P. aeruginosa” value in assay [1] (96-well plate, 37° C., 10 h) is 12.5 µg/mL. This substance had a minimum inhibitory concentration (MIC) in [2] of 12.5 µg/mL. The “MIC (μg/mL) C. diversus” value in [3] (96-well plate, 37° C., 10 h) came out at 50 µg/mL. Further, the “MIC (μg/mL) S. marcescens” value in assay [4] (96-well plate, 37° C., 10 h) is 50 µg/mL. Besides, the “MIC (μg/mL) E. coli BL21” value in [5] (96-well plate, 37° C., 10 h) is 12.5 µg/mL. Further, the “MIC (μg/mL) P. mirabilis” value in [6] (96-well plate, 37° C., 10 h) was determined as 12.5 µg/mL. Further, in [7] (96-well plate, 37° C., 10 h), the “MIC (μg/mL) K. pneumonia” value was 12.5 µg/mL. Also, the “MIC (μg/mL) M. catarrhalis” value in [8] (96-well plate, 37° C., 10 h) was determined as 25 µg/mL. Moreover, the “MIC (μg/mL) P. vulgaris” value in assay [9] (96-well plate, 37° C., 10 h) was 25 µg/mL. The “MIC (μg/mL) E. cloacae” value in assay [10] (96-well plate, 37° C., 10 h) is 50 µg/mL. In addition, the “MIC (μg/mL) A. hydrophila” value in [11] (96-well plate, 37° C., 10 h) came out at 12.5 µg/mL.
Turning to “PRT1202 (GYDFCSERHNCMENSICRNLNDRAVCSCRDGFRALREDNAYCE; listed as Homo sapiens)”, the “MIC against P. aeruginosa” value in assay [1] (96-well plate, 37° C., 10 h) is 25 µg/mL. The substance further gave an MIC in assay [2] of 50 µg/mL. For the same substance, the “MIC against C. diversus” value in assay [3] (96-well plate, 37° C., 10 h) is 12.5 µg/mL. In addition, in assay [4] (96-well plate, 37° C., 10 h), the “MIC against S. marcescens” value was found to be 50 µg/mL. In addition, in [5] (96-well plate, 37° C., 10 h), the “MIC against E. coli BL21” value was found to be 12.5 µg/mL. In addition, the “MIC against P. mirabilis” value in assay [6] (96-well plate, 37° C., 10 h) is 12.5 µg/mL. In addition, the “MIC against K. pneumonia” value in [7] (96-well plate, 37° C., 10 h) was determined as 50 µg/mL. Besides, the “MIC against M. catarrhalis” value in [8] (96-well plate, 37° C., 10 h) amounted to 50 µg/mL. The “MIC against P. vulgaris” value in [9] (96-well plate, 37° C., 10 h) was determined as 25 µg/mL. In addition, the “MIC against E. cloacae” value in assay [10] (96-well plate, 37° C., 10 h) worked out at 12.5 µg/mL. Also, the “MIC against A. hydrophila” value in assay [11] (96-well plate, 37° C., 10 h) worked out at 50 µg/mL.
